Experimental data taken from US4727080A, “1-substituted derivatives of 6-fluoro-7-(pyrrol-1-yl)-1,4-dihydro-4-oxoquinoline-3-carboxylic acid, their preparation and their application as drugs” (Provesan S.A., priority 1984, dated 1988).
In brackets after ≈: the same amount, converted by molar mass.

Tests used:
[1] = tested on: Enterobacter cloacae CHSP-20; experiment: "In vitro" MIC, Enterobacter cloacae; type: cell-based; details: CHSP20; Enterobacter cloacae CHSP-20; dextrose agar, 37° C., 20 hours; read-out: "In vitro" MIC
Method: (§1) Antimicrobial pharmacological activity (G. L. Daquet and Y. A. Chabbect, Techniques en bacteriologie (Techniques in bacteriology), vol. 3, Flammarion Medecine-Sciences, Paris, 1972, and W. B. Hugo and A. D. Rusell, Pharmaceutical Microbiology, Blackwell Scientific Publications, London (1977).
Enterobacter cloacae CHSP-20
(§2) A streak culture of each of the microorganisms is formed in tubes of antibiotics agar no. 1 and incubated for 20 hours at 37° C. A culture loop is then taken and a culture is formed in a tryptone-soya broth and incubated for 20 hours at 37° C. The resulting culture is diluted to 1/4 with Ringer's physiological solution to give a standardized suspension of 10^5 ufc/ml for each organism.
(§3) Starting from a solution of 1000 μg/ml in 0.1N NaOH, each product is diluted successively in dextrose agar (melted beforehand and kept at 50° C.) to give the following concentrations: 64-32-16-8-4-2-1-0.5-0.25-0.125 μg of derivative/ml of medium.
(§4) After this, each concentration of each product is divided up into Petri dishes of 10 cm diameter at a rate of 10 ml of medium per dish and using as many dishes as there are microorganisms to be tested.
(§5) Once the medium has cooled, the dishes are treated with the inoculations at a rate of 0.4 ml of inoculation per dish. They are spread out with a Drigalski loop and the supernatant is collected. The inoculated dishes are incubated at 37° C. for 20 hours.

Sarcina lutea ATCC 9341 = experiment: "In vitro" MIC, Sarcina lutea; type: cell-based; details: Micrococcus luteus, ATCC9341; Sarcina lutea ATCC 9341; dextrose agar, 37° C., 20 hours; read-out: "In vitro" MIC
Method: as §1, §2, §3, §4, §5

[2] = tested on: Salmonella typhimurium AMES 100; experiment: "In vitro" MIC, Salmonella typhimurium AMES 100; type: cell-based; details: Salmonella enterica; Salmonella typhimurium AMES 100; dextrose agar, 37° C., 20 hours; read-out: "In vitro" MIC
Method: as §1
Salmonella typhimurium AMES 100
as §2, §3, §4, §5

Shigella flexnerii = experiment: "In vitro" MIC, Shigella flexnerii; type: cell-based; details: 20 h, read-out: "In vitro" MIC
Method: as §1, §2, §3, §4, §5

[3] = tested on: Enterobacter aerogenes ATCC 15038; experiment: "In vitro" MIC, Enterobacter aerogenes; type: cell-based; details: Klebsiella aerogenes, ATCC15038; Enterobacter aerogenes ATCC 15038; dextrose agar, 37° C., 20 hours; read-out: "In vitro" MIC
Method: as §1
Enterobacter aerogenes ATCC 15038
as §2, §3, §4, §5

[4] = tested on: Bacillus subtilis ATCC 6633; experiment: "In vitro" MIC, Bacillus subtilis; type: cell-based; details: ATCC6633; Bacillus subtilis ATCC 6633; dextrose agar, 37° C., 20 hours; read-out: "In vitro" MIC
Method: as §1
Bacillus subtilis ATCC 6633
as §2, §3, §4, §5

[5] = tested on: Citrobacter freundii ATCC 11606; experiment: "In vitro" MIC, Citrobacter freundii; type: cell-based; details: ATCC11606; Citrobacter freundii ATCC 11606; dextrose agar, 37° C., 20 hours; read-out: "In vitro" MIC
Method: as §1
Citrobacter freundii ATCC 11606
as §2, §3, §4, §5

[6] = tested on: Streptococcus faecalis ATCC 10541; experiment: "In vitro" MIC, Streptococcus faecalis; type: cell-based; details: Enterococcus faecalis, ATCC10541; Streptococcus faecalis ATCC 10541; dextrose agar, 37° C., 20 hours; read-out: "In vitro" MIC
Method: as §1
Streptococcus faecalis ATCC 10541
as §2, §3, §4, §5

[7] = tested on: Klebsiella pneumoniae ATCC 10031; experiment: "In vitro" MIC, Klebsiella pneumoniae; type: cell-based; details: ATCC10031; Klebsiella pneumoniae ATCC 10031; dextrose agar, 37° C., 20 hours; read-out: "In vitro" MIC
Method: as §1
Klebsiella pneumoniae ATCC 10031
as §2, §3, §4, §5

Escherichia coli R-1513 = experiment: "In vitro" MIC, Escherichia coli R-1513; type: cell-based; details: R1513; Escherichia coli R-1513; dextrose agar, 37° C., 20 hours; read-out: "In vitro" MIC
Method: as §1, §2, §3, §4, §5

[8] = tested on: Pseudomonas aeruginosa 25115; experiment: "In vitro" MIC, Pseudomonas aeruginosa 25115; type: cell-based; details: Pseudomonas aeruginosa 25115; dextrose agar, 37° C., 20 hours; read-out: "In vitro" MIC
Method: as §1
Pseudomonas aeruginosa 25115
as §2, §3, §4, §5

[9] = tested on: Staphylococcus aureus ATCC 5488/23; experiment: "In vitro" MIC, Staphylococcus aureus ATCC 5488/23; type: cell-based; details: ATCC5488; Staphylococcus aureus ATCC 5488/23; dextrose agar, 37° C., 20 hours; read-out: "In vitro" MIC
Method: as §1
Staphylococcus aureus ATCC 5488/23
as §2, §3, §4, §5

Proteus morganii CHSP-16 = experiment: "In vitro" MIC, Proteus morganii; type: cell-based; details: Morganella morganii, CHSP16; Proteus morganii CHSP-16; dextrose agar, 37° C., 20 hours; read-out: "In vitro" MIC
Method: as §1, §2, §3, §4, §5

[10] = tested on: Salmonella typhimurium AMES 98; experiment: "In vitro" MIC, Salmonella typhimurium AMES 98; type: cell-based; details: Salmonella enterica; Salmonella typhimurium AMES 98; dextrose agar, 37° C., 20 hours; read-out: "In vitro" MIC
Method: as §1
Salmonella typhimurium AMES 98
as §2, §3, §4, §5

[11] = tested on: Escherichia coli ATCC 10536; experiment: "In vitro" MIC, Escherichia coli ATCC 10536; type: cell-based; details: ATCC10536; Escherichia coli ATCC 10536; dextrose agar, 37° C., 20 hours; read-out: "In vitro" MIC
Method: as §1
Escherichia coli ATCC 10536
as §2, §3, §4, §5

[12] = tested on: Pseudomonas aeruginosa ADSA 47; experiment: "In vitro" MIC, Pseudomonas aeruginosa ADSA 47; type: cell-based; details: ADSA47; Pseudomonas aeruginosa ADSA 47; dextrose agar, 37° C., 20 hours; read-out: "In vitro" MIC
Method: as §1
Pseudomonas aeruginosa ADSA 47
as §2, §3, §4, §5

[13] = tested on: Staphylococcus aureus ATCC 25178; experiment: "In vitro" MIC, Staphylococcus aureus ATCC 25178; type: cell-based; details: ATCC25178; Staphylococcus aureus ATCC 25178; dextrose agar, 37° C., 20 hours; read-out: "In vitro" MIC
Method: as §1
Staphylococcus aureus ATCC 25178
as §2, §3, §4, §5

Acute toxicity to mice = details: mouse, in vivo, ip, suspension in 5% gum arabic, mortality over 7 days
Method: The experimental animals used to determine this toxicity were albino mice of the C.F.L.P. strain and of both sexes, weighing between 19 and 25 grams. After an 18-hour fasting period with water "ad libitum", the derivatives forming the subject of the present invention are administered intraperitoneally as a suspension in 5% gum arabic. The volume of suspension administered was 0.4 ml/20 grams (20 ml/kg) in all cases, the concentration of the suspension being changed according to the dose administered.
One hour after administration of the derivatives, the animals are given a standard Panlab rat-mouse food. The mortality was observed over a period of 7 days. Differences in mortality between the sexes were not observed with any of the products.

[14] = tested on: Serratia marcescens ATTC 13880; experiment: "In vitro" MIC, Serratia marcescens; type: cell-based; details: ATTC13880; Serratia marcescens ATTC 13880; dextrose agar, 37° C., 20 hours; read-out: "In vitro" MIC
Method: as §1
Serratia marcescens ATTC 13880
as §2, §3, §4, §5

Gram-positive cocci = experiment: "In vitro" antimicrobial activity compared with nalidixic acid, Gram-positive cocci; type: cell-based
Method: as §1, §2, §3, §4, §5

[15] = tested on: Gram-negative microorganisms; experiment: "In vitro" antimicrobial activity compared with nalidixic acid, Gram-negative microorganisms; type: cell-based
Method: as §1, §2, §3, §4, §5

[16] = tested on: Proteus mirabilis ATCC 4675; experiment: "In vitro" MIC, Proteus mirabilis; type: cell-based; details: ATCC4675; Proteus mirabilis ATCC 4675; dextrose agar, 37° C., 20 hours; read-out: "In vitro" MIC
Method: as §1
Proteus mirabilis ATCC 4675
as §2, §3, §4, §5

[17] = tested on: Micrococcus flavus ATCC 10240; experiment: "In vitro" MIC, Micrococcus flavus; type: cell-based; details: ATCC10240; Micrococcus flavus ATCC 10240; dextrose agar, 37° C., 20 hours; read-out: "In vitro" MIC
Method: as §1
Micrococcus flavus ATTC 10240
as §2, §3, §4, §5

all microorganisms = experiment: "In vitro" antimicrobial activity compared with nalidixic acid, all microorganisms; type: cell-based; details: against all microorganisms
Method: as §1, §2, §3, §4, §5

SMILES | MIC [1] [µg/mL] | MIC (Sarcina lutea ATCC 9341) [µg/mL] | MIC [2] [µg/mL] | MIC (Shigella flexnerii) [µg/mL] | MIC [3] [µg/mL] | MIC [4] [µg/mL] | MIC [5] [µg/mL] | MIC [6] [µg/mL] | MIC [7] [µg/mL] | MIC (Escherichia coli R-1513) [µg/mL] | MIC [8] [µg/mL] | MIC [9] [µg/mL] | MIC (Proteus morganii CHSP-16) [µg/mL] | MIC [10] [µg/mL] | MIC [11] [µg/mL] | MIC [12] [µg/mL] | MIC [13] [µg/mL] | LD50 at 168 h (Acute toxicity to mice) [mg/kg] | MIC [14] [µg/mL] | MIC [16] [µg/mL] | further results
CCCn1cc(C(=O)O)c(=O)c2cc(F)c(-n3cccc3)cc21 [Example 5, 6-fluoro-7-(pyrrol-1-yl)-1-propyl-4-oxo-1,4-dihydroquinoline-3-carboxylic acid] | 4 (≈ 12.7 µM) | 8 (≈ 25.5 µM) | 1 (≈ 3.18 µM) | 4 (≈ 12.7 µM) | 8 (≈ 25.5 µM) | 0.125 (≈ 0.398 µM) | 8 (≈ 25.5 µM) | 8 (≈ 25.5 µM) | 0.5 (≈ 1.59 µM) | 8 (≈ 25.5 µM) | 32 (≈ 102 µM) | 0.5 (≈ 1.59 µM) | 8 (≈ 25.5 µM) | 1 (≈ 3.18 µM) | 0.5 (≈ 1.59 µM) | 32 (≈ 102 µM) | 0.5 (≈ 1.59 µM) | > 1600 | 1 (≈ 3.18 µM) | 16 (≈ 50.9 µM) | "in vitro" activity compared with nalidixic acid (Gram-positive cocci): greater activity towards Gram-positive cocci; activity compared with nalidixic acid [15]: activity of the same order as nalidixic acid; MIC [17]: 8 µg/mL (≈ 25.5 µM)
CCNn1cc(C(=O)O)c(=O)c2cc(F)c(-n3cccc3)cc21 [Example 8, 6-fluoro-7-(pyrrol-1-yl)-1-ethylamino-4-oxo-1,4-dihydroquinoline-3-carboxylic acid] | 1 (≈ 3.17 µM) | 4 (≈ 12.7 µM) | 1 (≈ 3.17 µM) | 1 (≈ 3.17 µM) | 2 (≈ 6.34 µM) | ≤ 0.062 | 4 (≈ 12.7 µM) | 4 (≈ 12.7 µM) | 0.25 (≈ 0.793 µM) | 4 (≈ 12.7 µM) | 16 (≈ 50.7 µM) | 0.25 (≈ 0.793 µM) | 4 (≈ 12.7 µM) | 0.062 (≈ 0.197 µM) | 0.062 (≈ 0.197 µM) | ≥ 32 | 0.25 (≈ 0.793 µM) | > 1600 | 2 (≈ 6.34 µM) | 8 (≈ 25.4 µM) | "in vitro" activity compared with nalidixic acid (Gram-positive cocci): greater activity towards Gram-positive cocci; activity compared with nalidixic acid [15]: activity of the same order as nalidixic acid; MIC [17]: 2 µg/mL (≈ 6.34 µM)
O=C(O)c1cn(C2CC2)c2cc(-n3cccc3)c(F)cc2c1=O [Example 9, 6-fluoro-7-(pyrrol-1-yl)-1-cyclopropyl-1,4-dihydro-4-oxoquinoline-3-carboxylic acid] | 0.12 (≈ 0.384 µM) | 0.5 (≈ 1.6 µM) | < 0.06 | 0.2 (≈ 0.64 µM) | 0.12 (≈ 0.384 µM) | 0.25 (≈ 0.801 µM) | 0.25 (≈ 0.801 µM) | 0.25 (≈ 0.801 µM) | < 0.06 | 0.12 (≈ 0.384 µM) | 1 (≈ 3.2 µM) | < 0.06 | 0.5 (≈ 1.6 µM) | 1 (≈ 3.2 µM) | < 0.06 | 2 (≈ 6.4 µM) | < 0.06 | > 1600 | 0.5 (≈ 1.6 µM) | 0.5 (≈ 1.6 µM) | activity compared with nalidixic acid (all microorganisms): greater than the activity of nalidixic acid; MIC [17]: 0.5 µg/mL (≈ 1.6 µM)
